# According to patent publication US20210340572A1, “HIGH-CONTENT IMAGING OF MICROFLUIDIC DEVICES” (EMULATE, Inc., priority 2019, published 2021):
# Assays:
# [1] = system: Kupffer cells; assay: Kupffer cell count (CD68-positive cells) in human chips; assay type: cell-based; conditions: human quadruple-cell chips
# Protocol: Microfluidic devices seeded with liver cells and static sandwich plate cultures were fixed with 4% paraformaldehyde for 15 minutes at room temperature, washed with PBS, and permeabilized (saponin 1% with 10% serum in PBS). Blocking and incubation with the primary antibodies (overnight in PBS containing 1% BSA or PBS containing 10% serum and 1% BSA) was followed by a two-hour incubation with secondary antibodies (Cell Signaling, Danvers, Mass., USA) in the same blocking buffer. Immunostaining was performed with specific primary antibodies (anti-MRP2, anti-stabilin-1, anti-BSEP, anti-α-SMA, anti-CD68; Abcam, Cambridge, Mass., USA) and images were acquired with either an Olympus fluorescence microscope (IX83) or Zeiss confocal microscope (AxiovertZ1 LSM880).
# The number of CD68- or α-SMA-positive cells in the vascular channel in each group was counted in each field of view ([…]) and quantified.
# [2] = Repeat-dose toxicity study of JNJ-1 in rats; assay type: in vivo; conditions: rat study
# Protocol: (§1) JNJ-1, prepared in purified water, was administered once daily for 14 days to 5 male and 5 female rats at doses of 5, 25, and 125 mg/kg. In a separate study, JNJ-1, also in purified water, was administered once daily for 4 weeks to 5 male and 5 female dogs at 0 or 40 mg/kg/day, and to 3 males and 3 female dogs at 2 or 10 mg/kg/day. Mortality, clinical observations, body weight, food consumption, clinical pathology, gross necropsy and microscopic examination of selected tissues, and toxicokinetics were evaluated. Rats or dogs were fasted overnight prior to blood collection for measurement of clinical pathology parameters (including AST and ALT) at the end of 14 days (rats) or 4 weeks (dogs) of dosing. Histology slides (hematoxylin and eosin staining and Mason's Trichrome staining) of the liver tissues were prepared and evaluated microscopically. The quantification of JNJ-1 was conducted using a qualified liquid chromatographic-triple quadrupole mass spectrometric (LC-MS/MS) procedure.
# [3] = system: microfluidic devices seeded with human liver cells; assay: Cytokine release (IL-6, MCP-1, IP-10) from the vascular channel of human chips; assay type: cell-based; conditions: human quadruple-cell chips
# Protocol: Cytokines: Release of IL-6, MCP-1, and IP-10 from the vascular channel was quantified using U-PLEX biomarker human assays (Meso Scale Diagnostics, Rockville, Md., USA) and the assays were performed according to the protocol provided by the vendor.
# [4] = Phase I dose-escalating study, clinical chemistry (ALT, AST); assay type: in vivo, human; conditions: Phase I clinical trial
# Protocol: A double-blind, placebo-controlled, randomized, dose-escalating, sequential group design was conducted in 2 Parts. Subjects received daily doses of JNJ-28312141 or placebo for a total of 2 weeks (the first dose on Day 1 and then daily on Days 3 to 14). Part 1 included 5 cohorts of healthy male or female subjects. In Part 2 of the study, 2 cohorts of postmenopausal women (PMW) were enrolled. Within each cohort of 12 subjects, 9 subjects were randomized to JNJ-1, and 3 subjects were randomized to placebo. Dose escalation only occurred after the Sponsor and the Investigator had performed a satisfactory review of the preliminary safety data including those obtained on the post-study follow up visit (anytime between Days 30 to 32), and of the drug concentration and PK data (if available) at the current dose level. In addition to efficacy endpoints, and pharmacokinetics, an assessment of safety included measurement of clinical chemistry parameters, including ALT and AST.
# [5] = Repeat-dose toxicity study of JNJ-1 in dogs; assay type: in vivo; conditions: dog study
# Protocol: as §1
# [6] = system: 3D human spheroid hepatic cultures; conditions: compared with human chip IC50; cited from earlier work
# [7] = system: microfluidic devices seeded with rat liver cells; assay: Albumin secretion / hepatocyte function, microfluidic devices seeded with rat liver cells; assay type: cell-based; conditions: Hepatocyte, 168 h; dual-cell rat chips, daily administration 1-100 μM, 7 days; read-out: IC50, decrease in albumin secretion
# From the text: (§2) Prior to cell seeding, microfluidic devices, in this case S-1 Chips (Emulate, Inc. Boston, Mass., USA), were functionalized using Emulate's proprietary protocols and reagents (ERT™), including those described herein. After surface functionalization, both channels of the microfluidic device were coated with species-specific extracellular matrices (ECM). For the human bound microfluidic device, a mixture of collagen type I (Corning, Corning, N.Y., USA) and fibronectin, e.g. bovine, (Gibco) was used; for the rat bound microfluidic devices a mixture of collagen type IV, e.g. human placenta, (Sigma-Aldrich, St. Louis, Mo., USA) and fibronectin (Gibco) was used; for the dog bound microfluidic devices a mixture of collagen I (Corning), collagen type IV (Sigma-Aldrich), and fibronectin (Gibco) was used. […] For the dual-cell culture model (hepatocytes and endothelial cells), the LSECs were seeded at a concentration of 2-4 million cells/mL in the lower vascular channel. […] Albumin secretion from the upper channel was quantified using ELISA kits for human, rat, and dog models effluent samples (human and rat: Abcam; dog: Immunology Consultants Laboratory, Inc., Portland, Oreg., USA) and the assays were performed according to the protocol provided by each vendor.
# [8] = molecular target: T1, BSEP (Homo sapiens, UniProt O95342); assay: CLF efflux (BSEP activity) in human hepatocytes on chip; assay type: cell-based; conditions: 30 μM
# T1 construct: Primary rat, dog or human hepatocytes were cultured in the upper parenchymal channel; endogenous in cells; host or cells: primary human hepatocytes in a microfluidic Liver-Chip, co-cultured with LSECs
# From the text: Microfluidic devices seeded with liver cells were stained in the upper channel with 5(6)-Carboxy-2′,7′-dichlorofluorescein diacetate (CDFDA) (ThermoFisher) to visualize bile canaliculi and MRP2 activity, cholyl-lysyl-fluorescein (CLF) (Corning) to visualize bile canaliculi and BSEP activity, Nile red (ThermoFisher) or AdipoRed (Lonza) to visualize lipid droplet accumulation, Tetramethylrhodamine, methyl ester (TMRM) (ThermoFisher) to visualize active mitochondria, and CellROX® (ThermoFisher) to visualize cellular oxidative stress. Each staining solution was prepared in blank medium or compound dosing medium and added to the upper channel, incubated for 15 minutes at 37° C., and washed three times with medium. The stained microfluidic devices were imaged using a specific filter, and were de-blurred with Olympus cellSens software. Using ImageJ-Fiji, the fluorescent channel images were histogram adjusted to remove background, followed by fluorescence quantification using the Integrated Density calculation function.
# Both a brightfield and a fluorescence image was taken from each field of view. […] These criteria were determined empirically using a small test set of images and then applied to images for the analysis. […] The data for treated and control samples were quantified by computing the area percentage of CLF-labeled bile canaliculi within each field of view (FOV).
# [9] = human plasma; cited from earlier work
# [10] = system: microfluidic devices seeded with human liver cells; assay: Albumin secretion, microfluidic devices seeded with human liver cells; assay type: cell-based
# From the text: Prior to cell seeding, microfluidic devices, in this case S-1 Chips (Emulate, Inc. Boston, Mass., USA), were functionalized using Emulate's proprietary protocols and reagents (ERT™), including those described herein. After surface functionalization, both channels of the microfluidic device were coated with species-specific extracellular matrices (ECM). For the human bound microfluidic device, a mixture of collagen type I (Corning, Corning, N.Y., USA) and fibronectin, e.g. bovine, (Gibco) was used; for the rat bound microfluidic devices a mixture of collagen type IV, e.g. human placenta, (Sigma-Aldrich, St. Louis, Mo., USA) and fibronectin (Gibco) was used; for the dog bound microfluidic devices a mixture of collagen I (Corning), collagen type IV (Sigma-Aldrich), and fibronectin (Gibco) was used. […] For the dual-cell culture model (hepatocytes and endothelial cells), the LSECs were seeded at a concentration of 2-4 million cells/mL in the lower vascular channel. […] After cell seeding, the upper channel of the microfluidic device was maintained in William's E Medium (WEM) containing Glutamax (Gibco), ITS+(Corning), dexamethasone (Sigma-Aldrich), ascorbic acid (Sigma-Aldrich), fetal bovine serum (FBS) (Sigma-Aldrich), and Penicillin/Streptomycin (Sigma-Aldrich). The vascular channel of the microfluidic device was maintained with species-specific endothelial media (Emulate, Inc.). Two days after seeding, the microfluidic devices were connected to the Human Emulation System™ (Emulate, Inc.), as described in part herein, and both of the microfluidic device channels were perfused at 30 μL/hr to provide a continuous supply of fresh media for the duration of the experiments. Albumin secretion from the upper channel was quantified using ELISA kits for human, rat, and dog models effluent samples (human and rat: Abcam; dog: Immunology Consultants Laboratory, Inc., Portland, Oreg., USA) and the assays were performed according to the protocol provided by each vendor.
# [11] = system: microfluidic devices seeded with dog liver cells; assay: Albumin secretion, microfluidic devices seeded with dog liver cells; assay type: cell-based; conditions: Canis lupus familiaris, 168 h; dual-cell dog chips, daily administration 1-100 μM, 7 days; read-out: IC50, decrease in albumin secretion
# From the text: as §2
# [12] = system: primary human hepatocytes and liver sinusoidal endothelial cells (LSECs); assay: High-content confocal imaging of microfluidic devices seeded with liver cells; assay type: cell-based; conditions: 10 μM, six hours of exposure
# Protocol: Microfluidic devices were obtained from Emulate Inc. (USA) and are illustrated in FIG. 1A. The channels of the microfluidic devices were coated with a proprietary mixture of extracellular matrix and were incubated overnight at 37° C. Primary human cryopreserved hepatocytes sourced from ThermoFisher, as one example, were seeded in the top channel at a density of 3.5×10^6 cells/mL, and were left to form an attached monolayer at 37° C. in a humidified incubator with a 95%/5% ratio of air to CO2.
# Twenty-four hours after seeding, the hepatocyte monolayer was overlaid with Matrigel Matrix sourced from Corning, USA. Primary human cryopreserved liver sinusoidal endothelial cells, also known as LSECs, were seeded on the bottom channel of the microfluidic device at a density of 2 to 4×10^6 cells/mL in endothelial medium, also known as CSC medium or Base LSEC Culture Medium; CSC basal Medium plus Culture-Boost (2%), Cell Systems, and Pen/Strep (1%), Sigma. In some embodiments, endothelial cells are cultured in Complete LSEC Culture Medium, Base LSEC Culture Medium plus 10% FBS.
# Microfluidic devices were inverted for 2 hours to allow attachment underneath the membrane, and then inverted back before being connected to a platform containing a pneumatic pump source from Emulate Inc. Media was flowed through both channels at a flow rate of 30 μL/hour and was refreshed every other day.
# The effects of agents, such as staurosporine on cell phenotype was evaluated. Microfluidic devices were perfused with staurosporine (0 and 10 μM) for 6 hours at a flow rate of 30 μL/hour. A compound was also tested in the microfluidic devices seeded with liver cells. The microfluidic devices seeded with liver cells were perfused with the compound at the concentrations of 0.1 μM, 1 μM or 10 μM for 3 hours, after which the compound was removed from the media flow. The protocol was chosen as it was analogous to how the compound has been evaluated in vivo. […]
# [13] = system: microfluidic devices seeded with human liver cells; assay: APAP metabolite quantification by LC-MS in human chips; assay type: in vitro ADME; conditions: daily 3 mM for 20 days, flow 10 μL/hr
# From the text: After APAP exposure to microfluidic devices seeded with human liver cells, effluent metabolite levels were quantified using LC-MS analysis. […] APAP-Glucuronide (APAP-Glu), the primary metabolite of APAP, was not quantified using a standard curve. Rather, the LC-MS peak area of APAP-Glu was reported corresponding to each sample.
# T1 sequence (O95342 whole entry): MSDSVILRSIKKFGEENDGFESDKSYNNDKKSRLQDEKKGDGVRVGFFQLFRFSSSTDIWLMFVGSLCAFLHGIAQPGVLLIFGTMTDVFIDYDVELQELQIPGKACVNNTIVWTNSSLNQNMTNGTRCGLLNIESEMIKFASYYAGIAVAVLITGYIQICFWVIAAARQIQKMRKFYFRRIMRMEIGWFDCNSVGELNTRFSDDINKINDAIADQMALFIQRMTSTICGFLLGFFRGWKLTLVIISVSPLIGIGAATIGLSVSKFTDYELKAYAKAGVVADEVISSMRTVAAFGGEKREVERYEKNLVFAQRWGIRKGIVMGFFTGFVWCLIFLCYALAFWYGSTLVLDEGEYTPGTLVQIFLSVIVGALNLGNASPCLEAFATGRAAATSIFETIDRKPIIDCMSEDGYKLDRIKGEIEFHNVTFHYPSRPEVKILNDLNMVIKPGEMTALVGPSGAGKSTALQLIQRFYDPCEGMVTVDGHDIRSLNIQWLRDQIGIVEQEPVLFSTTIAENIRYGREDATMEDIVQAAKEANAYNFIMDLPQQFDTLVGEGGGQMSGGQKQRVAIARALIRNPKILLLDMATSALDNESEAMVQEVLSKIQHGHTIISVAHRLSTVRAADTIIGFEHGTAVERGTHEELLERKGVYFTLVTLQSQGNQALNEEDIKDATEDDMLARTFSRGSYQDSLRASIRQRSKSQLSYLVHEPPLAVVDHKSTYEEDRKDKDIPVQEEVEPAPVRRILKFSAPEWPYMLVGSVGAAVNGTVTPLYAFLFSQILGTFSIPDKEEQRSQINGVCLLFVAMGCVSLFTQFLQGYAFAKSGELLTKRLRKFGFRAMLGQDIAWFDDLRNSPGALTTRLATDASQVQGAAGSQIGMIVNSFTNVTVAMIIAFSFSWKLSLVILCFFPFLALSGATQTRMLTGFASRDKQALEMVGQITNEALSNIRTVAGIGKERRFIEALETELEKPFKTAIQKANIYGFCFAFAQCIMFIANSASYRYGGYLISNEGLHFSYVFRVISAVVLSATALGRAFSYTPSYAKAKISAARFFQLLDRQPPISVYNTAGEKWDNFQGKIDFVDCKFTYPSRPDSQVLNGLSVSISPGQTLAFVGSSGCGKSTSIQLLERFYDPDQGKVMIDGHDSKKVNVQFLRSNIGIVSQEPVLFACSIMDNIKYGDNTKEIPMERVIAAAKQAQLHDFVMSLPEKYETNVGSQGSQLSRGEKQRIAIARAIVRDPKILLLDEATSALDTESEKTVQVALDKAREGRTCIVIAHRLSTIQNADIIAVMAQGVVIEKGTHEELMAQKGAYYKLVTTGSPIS
smiles,measurement,setting,value
CN(C)CC(=O)N1CCC(c2ccc(NC(=O)c3nc(C#N)c[nH]3)c(C3=CCCCC3)c2)CC1 [JNJ compound],Kupffer cells (CD68-positive cells),[1],decreased number
same,microscopic changes in the liver,[2],without any correlative microscopic changes
same,transaminases,[2],Dose-related elevation
same,interleukin 6 (IL-6) in the vascular channel,[3],dose-dependent decrease
same,monocyte chemoattractant protein-1 (MCP-1) in the vascular channel,[3],dose-dependent decrease
same,healthy subjects with elevation of alanine aminotransferase (ALT),[4],3/12
same,healthy subjects with elevation of aspartate aminotransferase (AST),[4],7/12
same,microscopic changes in the liver,[5],without any correlative microscopic changes
same,transaminases,[5],Dose-related elevation
COc1ccccc1Oc1c(NS(=O)(=O)c2ccc(C(C)(C)C)cc2)nc(-c2ncccn2)nc1OCCO [bosentan],IC50 in 3D human spheroid hepatic cultures relative to human chip,[6],more than 10 fold higher
same,IC50,[7],> 100 µM
same,intracellular accumulation of CLF,[8],intracellular accumulation
same,reduction in CLF efflux,[8]; co-treatment with CLF,> 50%
same,plasma concentration (Cmax) associated with DILI in humans,[9],7.4 µM
same,IC50,"[10]; 72 h, dual-cell human chips, daily administration 1-100 μM, 3 days, read-out: IC50, decrease in albumin secretion",10 µM
same,IC50,[11],30 µM
CN[C@@H]1C[C@H]2O[C@@](C)([C@@H]1OC)n1c3ccccc3c3c4c(c5c6ccccc6n2c5c31)C(=O)NC4 [staurosporine],LSECs (cell number),[12],complete loss of LSECs
same,apoptotic marker (CC3),[12],marked increases
same,hepatocyte cell number,[12],little if any effect
"CC(=O)Nc1ccc(O)cc1 [APAP, acetaminophen]",APAP glucuronide in parenchymal and vascular channels,[13],significant amounts
same,albumin synthesis / secretion,"[10]; quadruple-cell human chips, 7 days",decreased
